According to patent publication US20110319491A1, “ANHYDROUS DEPIGMENTING COMPOSITIONS COMPRISING, WITHIN THE FATTY PHASE THEREOF, A SOLUBILIZED PHENOLIC COMPOUND AND A RETINOID” (GALDERMA RESEARCH & DEVELOPMENT, priority 2009, published 2011):
Like-named read-outs stand apart in the source and are kept apart here.

Columns and labels:
[1] = Chemical stability of the formulations (HPLC assay of the active agents); assay type: physicochemical; conditions: in composition of Example 2
Method: The chemical stability is measured by assaying the active agents by external calibration in HPLC and the results are expressed as a % of […] relative to the theoretical value.

[2] = Stability of hydroquinone in solvent oils and lipophilic surfactants (HPLC assay, colour)
[3] = cited from earlier work
[4] = in Cremophor EL, 1 month, 40° C.
[5] = in Cremophor EL, 3 months, 40° C.
[6] = in Crodamol DA, 1 month, 40° C.
[7] = in Crodamol DA, 3 months, 40° C.
[8] = in Ethanol/water (20/80), 1 month, 40° C.
[9] = in Ethanol/water (20/80), 1 month, RT
[10] = in Ethanol/water (20/80), 3 months, 40° C.
[11] = in Ethanol/water (20/80), 3 months, RT
[12] = in Propylene glycol, 1 month, 40° C.
[13] = in Propylene glycol, 1 month, RT
[14] = in Propylene glycol, 3 months, 40° C.
[15] = in Propylene glycol, 3 months, RT

## Oc1ccc(O)cc1 [Hydroquinone, hydroquinone]
In Arlamol E
  Max. solubility (w/w): 11.9 w/w
In Caprylic capric triglycerides
  Max. solubility (w/w): 1.7 w/w
In Castor oil
  Max. solubility (w/w): 6.5 w/w
In Cremophor EL
  Max. solubility (w/w): 27.9 w/w
  Solubility of hydroquinone (in words): high solubility
In Crodamol DA
  Max. solubility (w/w): 10.7 w/w
In Ethanol/water (20/80)
  Max. solubility (w/w): 17 w/w
In Glycerol
  Max. solubility (w/w): 15.6 w/w
In Labrasol
  Max. solubility (w/w): 28.9 w/w
In Lauroglycol
  Max. solubility (w/w): 5.5 w/w
In PEG 400
  Max. solubility (w/w): 19.8 w/w
In Propylene glycol
  Max. solubility (w/w): 15.6 w/w
[1]; 40° C., T + 1 M
  Chemical stability: hydroquinone assay, % relative to the theoretical value: 97.6%
[1]; 40° C., T + 2 M
  Chemical stability: hydroquinone assay, % relative to the theoretical value: 100.8%
[1]; 40° C., T + 3 M
  Chemical stability: hydroquinone assay, % relative to the theoretical value: 99.2%
[1]; 40° C., T + 6 M
  Chemical stability: hydroquinone assay, % relative to the theoretical value: 97.2%
[1]; RT, T + 1 M
  Chemical stability: hydroquinone assay, % relative to the theoretical value: 98.9%
[1]; RT, T + 2 M
  Chemical stability: hydroquinone assay, % relative to the theoretical value: 101.8%
[1]; RT, T + 3 M
  Chemical stability: hydroquinone assay, % relative to the theoretical value: 98.8%
[1]; RT, T + 6 M
  Chemical stability: hydroquinone assay, % relative to the theoretical value: 100.6%
[2]; in Arlamol E, 1 month, 40° C.
  % (HPLC assay, T0 = 100%): 95.5%
  Colour: Colourless
[2]; in Arlamol E, 1 month, RT
  % (HPLC assay, T0 = 100%): 95.9%
  Colour: Colourless
[2]; in Arlamol E, 3 months, 40° C.
  % (HPLC assay, T0 = 100%): 96.0%
  Colour: Colourless
[2]; in Arlamol E, 3 months, RT
  % (HPLC assay, T0 = 100%): 95.9%
  Colour: Colourless
[2]; [4]
  % (HPLC assay, T0 = 100%): 87.1%
  Colour: Brown
[2]; in Cremophor EL, 1 month, RT
  % (HPLC assay, T0 = 100%): 91.4%
  Colour: Orange
[2]; [5]
  % (HPLC assay, T0 = 100%): 85.1%
  Colour: Brown++
[2]; in Cremophor EL, 3 months, RT
  % (HPLC assay, T0 = 100%): 87%
  Colour: Brown+
[2]; in Cremophor EL, browning that becomes pronounced over time and with temperature
  Macroscopic stability of hydroquinone (in words): macroscopic instability
[2]; in Crodamol DA, Arlamol E and Labrasol
  Chemical and physical stability of hydroquinone (in words): good chemical and physical stability
[2]; [6]
  % (HPLC assay, T0 = 100%): 95.9%
  Colour: Colourless
[2]; in Crodamol DA, 1 month, RT
  % (HPLC assay, T0 = 100%): 96.5%
  Colour: Colourless
[2]; [7]
  % (HPLC assay, T0 = 100%): 97.4%
  Colour: Colourless
[2]; in Crodamol DA, 3 months, RT
  % (HPLC assay, T0 = 100%): 97.6%
  Colour: Colourless
[2]; [8]
  % (HPLC assay, T0 = 100%): 91.7%
  Colour: Dark pink
[2]; [9]
  % (HPLC assay, T0 = 100%): 94.4%
  Colour: Orange
[2]; [10]
  % (HPLC assay, T0 = 100%): 89.4%
  Colour: Brown
[2]; [11]
  % (HPLC assay, T0 = 100%): 93.9%
  Colour: Orange
[2]; in Glycerol, 1 month, 40° C.
  % (HPLC assay, T0 = 100%): 93.5%
  Colour: Dark yellow
[2]; in Glycerol, 1 month, RT
  % (HPLC assay, T0 = 100%): 95.0%
  Colour: Yellow
[2]; in Glycerol, 3 months, 40° C.
  % (HPLC assay, T0 = 100%): 93.3%
  Colour: Orange
[2]; in Glycerol, 3 months, RT
  % (HPLC assay, T0 = 100%): 93.0%
  Colour: Pink
[2]; in Labrasol, 1 month, 40° C.
  % (HPLC assay, T0 = 100%): 95.2%
  Colour: Colourless
[2]; in Labrasol, 1 month, RT
  % (HPLC assay, T0 = 100%): 95.4%
  Colour: Colourless
[2]; in Labrasol, 3 months, 40° C.
  % (HPLC assay, T0 = 100%): 95.1%
  Colour: Colourless
[2]; in Labrasol, 3 months, RT
  % (HPLC assay, T0 = 100%): 94.6%
  Colour: Colourless
[2]; in Miglyol, 1 month, 40° C.
  % (HPLC assay, T0 = 100%): 95%
  Colour: Colourless
[2]; in Miglyol, 1 month, RT
  % (HPLC assay, T0 = 100%): 94.2%
  Colour: Colourless
[2]; in Miglyol, 3 months, 40° C.
  % (HPLC assay, T0 = 100%): 95%
  Colour: Colourless
[2]; in Miglyol, 3 months, RT
  % (HPLC assay, T0 = 100%): 93.1%
  Colour: Colourless
[2]; in PEG 400, 1 month, 40° C.
  % (HPLC assay, T0 = 100%): 91.4%
  Colour: Orange
[2]; in PEG 400, 1 month, RT
  % (HPLC assay, T0 = 100%): 93.4%
  Colour: Pink
[2]; in PEG 400, 3 months, 40° C.
  % (HPLC assay, T0 = 100%): 91.8%
  Colour: Brown
[2]; in PEG 400, 3 months, RT
  % (HPLC assay, T0 = 100%): 89.0%
  Colour: Brown
[2]; [12]
  % (HPLC assay, T0 = 100%): 91.8%
  Colour: Yellow
[2]; [13]
  % (HPLC assay, T0 = 100%): 97.0%
  Colour: Colourless
[2]; [14]
  % (HPLC assay, T0 = 100%): 88.8%
  Colour: Dark yellow
[2]; [15]
  % (HPLC assay, T0 = 100%): 94.2%
  Colour: Yellow
[2]; in solvents of the prior art such as glycols, RT and 40° C., absence of antioxidants
  Colour stability of hydroquinone (in words): colouration is observed
[3]; 2% hydroquinone concentration
  Incidence of irritation: virtually nonexistent
[3]; 10% hydroquinone concentration
  Incidence of irritation: relatively high
[3]; preparations with a 5% dose of hydroquinone
  Incidence of irritation: reduces greatly
